Measurements taken from US12441725B2, “ISO-citrate dehydrogenase (IDH) inhibitor” (ZHEJIANG METON PHARMACEUTICAL CO., LTD, priority 2019, dated 2025).
pIC50: −log10 of the molar value.

Legend:
[1] = molecular target: T1, IDH1 R132H (Homo sapiens, UniProt O75874, R132H); test: Biochemical assay for IDH inhibition (NADPH fluorescence), mutant IDH1 R132H; details: 50 nM IDH1-R132H, 1 hour pre-incubation, in triplet
T1 construct: 6xHis
Description: (§1) The present disclosure provides a biochemical assay method for detecting the IDH inhibition and selectivity of the compounds by detecting IDH enzyme activity directly.
(§2) Wild-type IDH enzymes convert NADP^+ to NADPH when catalyzing the α-KG producing reaction. Mutant IDH enzymes convert NADPH to NADP^+ when catalyzing the D-2-HG producing reaction. So, the activity of wild-type and mutant IDH1/2 could be measured by monitoring NADPH level change as NADPH is fluorescent (Excitation 340 nm, Emission 460 nm). By monitoring the change of NADPH level in the reaction, the enzyme activity could be determined rapidly and efficiently and IC50 of a compound could also be assayed.
(§3) The test compounds are prepared into 50 mM stock solutions in DMSO and stored at −20° C. Each test compound stock is further diluted to obtain a 100× stock solution at a concentration of 400 μM, 200 μM, 100 μM, 50 μM, 25 μM, 12.5 μM, 6.25 μM and 3.125 μM, respectively, for the final use on the day of test (the concentration range of 100× stock solutions might be adjusted to cover the estimated IC50 of a specific test compound).
(§4) Inhibition of Mutant IDH1 (R132H or R132C):
(§5) To assay the enzymatic activity of mutant IDH1 proteins, 25 nM IDH1-R132C or 50 nM IDH1-R132H protein solutions are prepared in 20 mM Tris-HCl pH7.5, 150 mM NaCl, 10 mM MgCl2, 1 mM DTT, 0.05 mg/ml BSA and 1.33 mM α-KG. 148 μL 25 nM IDH1-R132C or 50 nM IDH1-R132H protein solutions are mixed with 2 μL DMSO (vehicle control for test compounds) or an above-mentioned 100× stock solution of a test compound and incubated for 1 hour at room temperature. Extra reactions containing 148 μL no-enzyme solution (20 mM Tris-HCl pH7.5, 150 mM NaCl, 10 mM MgCl2, 1 mM DTT, 0.05 mg/ml BSA and 1.33 mM α-KG) and 2 μL DMSO are also set up as background controls. Then each reaction is initiated by adding 50 μL 80 μM NADPH solution prepared in 20 mM Tris-HCl pH7.5, 150 mM NaCl, 10 mM MgCl2, 1 mM DTT and 0.05 mg/ml BSA. BioTek Synergy H1 Microplate reader (BioTek Instruments Inc., Winooski, U.S.) is employed to monitor the NADPH fluorescence (Excitation 340 nm, Emission 460 nm) every 42 seconds for 15 minutes. NADPH change rate is determined according to the linear phase of the fluorescence-time curve and results from the background control reactions are used as background subtraction to calculate the net NADPH change rates of other reactions. The net NADPH change rates from the vehicle control reactions are used as 100% enzymatic activity and thus the relative enzymatic activity of reactions with test compounds added could be determined. Then a dose-response curve is drawn for each test compound and the corresponding IC50 is calculated. The IC50 value is used to evaluate the inhibition and selectivity of each test compound on the IDH enzymatic activity.
(§6) The IDH inhibition activity of the compounds were assessed according to Test 2 of the Biological Assay section. The test for mutant IDH1 R132H and IDH1 R132C inhibition of each compound was carried out in triplet. As used in Table 5, “A” refers to an inhibitory activity against IDH1 R132H or IDH1 R132C with an IC50<0.1 μM; “B” refers to an inhibitory activity against IDH1 R132H or IDH1 R132C with an IC50 from 0.1 μM to 0.5 μM; “C” refers to an inhibitory activity against IDH1 R132H or IDH1 R132C with an IC50 from 0.5 μM to 1 μM; “D” refers to an inhibitory activity against IDH1 R132H or IDH1 R132C with an IC50>1 μM.

[2] = molecular target: T2, IDH (endogenous IDH1 R132C) in HT1080 cell (Homo sapiens, UniProt O75874, R132C); test: Cell-based assay for IDH inhibition (decrease of D-2-HG) in HT1080 cells; details: human fibrosarcoma cell line HT1080, 16 hours treatment, D-2-HG by LC-MS, in triplet
T2 construct: which harbor endogenous heterozygous IDH1 R132C and R132H mutation respectively and accumulate D-2-HG
Description: The present disclosure also provides a cell-based method for assaying IDH inhibition and selectivity of the compounds in human fibrosarcoma cell line HT1080 and cholangiocarcinoma cell line HCCC 9810, which harbor endogenous heterozygous IDH1 R132C and R132H mutation respectively and accumulate D-2-HG. Tumor -derived IDH mutant lost its normal activity of producing α-KG, and gained a new activity of producing D-2-HG. D-2-HG is a metabolite specifically elevated in tumor cells expressing mutant IDH1 or IDH2 proteins. When treating such mutant IDH-expressing tumor cells with an effective IDH inhibitor, the synthesis of D-2-HG is blocked, and D-2-HG concentration is decreased by the oxidation reaction catalyzed by the endogenous D-2-HG dehydrogenase.
To perform a cell-based IDH inhibition assay, HT1080 and HCCC 9810 cells (or other cell lines harboring different IDH mutations) are cultured in DMEM supplemented with 10% FBS. The cells are treated with compounds of present disclosure at various different concentrations. 16 hours after the treatment, culture medium supernatants are removed and cell metabolites are extracted by 40% methanol and 40% acetonitrile in water (pre-chilled under −80° C.) at 4° C. for 1 hour. The extract supernatants are collected and cell debris are removed via high speed centrifugation. The resulting metabolite extracts are analyzed on an Agilent LC-MS system (model: 1290-6470) for 2-HG and glutamate concentration. A HILIC-Z column (2.1 mm×100 mm, […]) is employed on HPLC. Mobile phase A is 15 mM CH3COONH4 and 0.3% NH3·H2O in water. Mobile phase B is 15 mM CH3COONH4 and 0.3% NH3·H2O in 90% MeCN/10% H2O solvent. An 19% solvent A and 81% solvent B isocratic gradient method is used at a flow rate of 0.3 ml/min. D-2-HG is ionized under negative ion spray mode and detected through the multiple-reaction monitoring of a mass transition pair at m/z=147.0/128.9 and 147.0/85.1. Glutamate is ionized under ion spray mode and detected on negative polarity multiple-reaction monitoring of a mass transition pair at m/z=146/102 and 146/128 and its level is used to normalize 2-HG concentration. The activity of cellular mutant IDH proteins in the presence of each test compound at different concentrations can be represented by relative D-2-HG concentration to negative control samples (i.e., cells are treated with DMSO only), and the IC50 value could be determined to evaluate the inhibition and selectivity of each test compound on the IDH enzymatic activity.
The IDH inhibition activity of the compounds were assessed in human fibrosarcoma cell line HIT1080 according to Test 3 of the Biological Assay section. The test for IDH inhibition of each compound was carried out in triplet. As used in Table 6, “A” refers to an IDH inhibitory activity with an IC50<0.1 μM; “B” refers to an IDH inhibitory activity with an IC50 from 0.1 μM to 0.5 μM; “C” refers to an IDH inhibitory activity with an IC50 from 0.5 μM to 1 μM; “D” refers to an IDH inhibitory activity with an IC50>1 μM.

[3] = molecular target: T3, IDH1 R132C (Homo sapiens, UniProt O75874, R132C); test: Biochemical assay for IDH inhibition (NADPH fluorescence), mutant IDH1 R132C; details: 25 nM IDH1-R132C, 1 hour pre-incubation, in triplet
T3 construct: 6xHis
Description: as §1, §2, §3, §4, §5, §6

T3 sequence (O75874 whole entry R132C): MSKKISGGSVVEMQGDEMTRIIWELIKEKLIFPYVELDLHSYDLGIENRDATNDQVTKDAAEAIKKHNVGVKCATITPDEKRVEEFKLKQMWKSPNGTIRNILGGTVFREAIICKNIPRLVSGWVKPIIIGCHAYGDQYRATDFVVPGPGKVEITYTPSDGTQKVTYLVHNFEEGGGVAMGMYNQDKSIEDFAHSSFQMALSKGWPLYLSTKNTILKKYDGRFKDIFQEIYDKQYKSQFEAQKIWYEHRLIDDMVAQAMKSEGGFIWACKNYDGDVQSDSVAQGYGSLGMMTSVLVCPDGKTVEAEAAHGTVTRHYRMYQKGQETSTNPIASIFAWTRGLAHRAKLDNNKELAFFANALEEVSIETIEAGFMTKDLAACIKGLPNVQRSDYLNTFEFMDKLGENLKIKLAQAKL
T1 sequence (O75874 whole entry R132H): as the sequence (O75874 whole entry R132C) above, with C132H counted along it
T2 sequence (O75874 2-414 R132C): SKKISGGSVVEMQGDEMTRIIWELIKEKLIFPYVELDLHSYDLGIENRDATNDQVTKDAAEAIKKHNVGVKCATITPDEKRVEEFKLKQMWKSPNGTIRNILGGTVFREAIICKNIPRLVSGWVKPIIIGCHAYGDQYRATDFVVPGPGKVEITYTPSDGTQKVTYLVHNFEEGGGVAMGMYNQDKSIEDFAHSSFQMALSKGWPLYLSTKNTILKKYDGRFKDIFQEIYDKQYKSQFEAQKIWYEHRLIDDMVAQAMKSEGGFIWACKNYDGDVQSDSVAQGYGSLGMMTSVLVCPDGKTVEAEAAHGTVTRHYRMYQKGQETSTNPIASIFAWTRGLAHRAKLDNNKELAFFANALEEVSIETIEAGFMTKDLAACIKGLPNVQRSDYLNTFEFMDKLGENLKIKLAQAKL

SMILES	pIC50 [1]	pIC50 [2]	pIC50 [3]
CCN1Cc2c(ccnc2N[C@@H](C)c2cc(F)c(-c3ccnc(-c4cncc(Cl)c4)c3)cc2F)C1=O [Compound 100, (S)-4-((1-(4-(5′-chloro-[2,3′-bipyridin]-4-yl)-2,5-difluorophenyl)ethyl)amino)-2-ethyl-2,3-dihydro-1H-pyrrolo[3,4-c]pyridin-1-one]	6.30 to 7.00	6.30 to 7.00	6.00 to 6.30
CCN1Cc2c(ccnc2N[C@@H](C)c2ccc(OC3Cc4ccccc4C3)c(F)c2)C1=O [Compound 5, (S)-4-((1-(4-((2,3-dihydro-1H-inden-2-yl)oxy)-3-fluorophenyl)ethyl)amino)-2-ethyl-2,3-dihydro-1H-pyrrolo[3,4-c]pyridin-1-one]	6.00 to 6.30	< 6.00	6.00 to 6.30
CCN1Cc2c(ccnc2N[C@@H](C)c2cc(F)c(-c3cc(C(C)(C)F)c(O)cn3)cc2F)C1=O [Compound 162, (S)-4-((1-(2,5-difluoro-4-(4-(2-fluoropropan-2-yl)-5-hydroxypyridin-2-yl)phenyl)ethyl)amino)-2-ethyl-2,3-dihydro-1H-pyrrolo[3,4-c]pyridin-1-one]	6.30 to 7.00	6.30 to 7.00	6.30 to 7.00
CCN1Cc2c(ccnc2N[C@H](C)c2cn(-c3ccc(Cl)cc3)cn2)C1=O [Compound 58, (R)-4-((1-(1-(4-chlorophenyl)-1H-imidazol-4-yl)ethyl)amino)-2-ethyl-2,3-dihydro-1H-pyrrolo[3,4-c]pyridin-1-one]	< 6.00	< 6.00	< 6.00
CCN1Cc2c(ccnc2N[C@@H](C)c2cc(C(C)(C)C)ncc2F)C1=O [Compound 63, (S)-4-((1-(2-(tert-butyl)-5-fluoropyridin-4-yl)ethyl)amino)-2-ethyl-2,3-dihydro-1H-pyrrolo[3,4-c]pyridin-1-one]	< 6.00	< 6.00	< 6.00
CCN1Cc2c(ccnc2N[C@@H](C)c2ccc(Oc3ccnc4ccccc34)c(F)c2)C1=O [Compound 30, (S)-2-ethyl-4-((1-(3-fluoro-4-(quinolin-4-yloxy)phenyl)ethyl)amino)-2,3-dihydro-1H-pyrrolo[3,4-c]pyridin-1-one]	6.00 to 6.30	< 6.00	< 6.00
CCN1Cc2c(ccnc2N[C@@H](C)c2ccc(Oc3ccc4c(c3)CCN4C)c(F)c2)C1=O [Compound 29, (S)-2-ethyl-4-((1-(3-fluoro-4-((1-methylindolin-5-yl)oxy)phenyl)ethyl)amino)-2,3-dihydro-1H-pyrrolo[3,4-c]pyridin-1-one]	6.30 to 7.00	< 6.00	6.00 to 6.30

Next, values leading:

pIC50 [1]	pIC50 [2]	pIC50 [3]	SMILES
> 7.00	> 7.00	> 7.00	CCN1Cc2c(ccnc2N[C@@H](C)c2cc(F)c(-c3cc(C(C)(C)F)cc(CF)n3)cc2F)C1=O [Compound 118, (S)-4-((1-(2,5-difluoro-4-(6-(fluoromethyl)-4-(2-fluoropropan-2-yl)pyridin-2-yl)phenyl)ethyl)amino)-2-ethyl-2,3-dihydro-1H-pyrrolo[3,4-c]pyridin-1-one]
6.30 to 7.00	6.00 to 6.30	6.30 to 7.00	C[C@H](Nc1nccc2c1CN(CC(F)F)C2=O)c1ccc(-c2ccnc(C(C)(C)C)c2)c(F)c1 [Compound 37, (S)-4-((1-(4-(2-(tert-butyl)pyridin-4-yl)-3-fluorophenyl)ethyl)amino)-2-(2,2-difluoroethyl)-2,3-dihydro-1H-pyrrolo[3,4-c]pyridin-1-one]
> 7.00	> 7.00	> 7.00	CCN1Cc2c(ccnc2N[C@@H](C)c2cc(F)c(-c3cc(C(C)(C)C)ncc3F)cc2F)C1=O [Compound 104, (S)-4-((1-(4-(2-(tert-butyl)-5-fluoropyridin-4-yl)-2,5-difluorophenyl)ethyl)amino)-2-ethyl-2,3-dihydro-1H-pyrrolo[3,4-c]pyridin-1-one]
> 7.00	> 7.00	> 7.00	CCN1Cc2c(ccnc2N[C@@H](C)c2cc(F)c(-c3nc(C)cc(C(C)(C)F)c3F)cc2F)C1=O [Compound 134, (S)-4-((1-(2,5-difluoro-4-(3-fluoro-4-(2-fluoropropan-2-yl)-6-methylpyridin-2-yl)phenyl)ethyl)amino)-2-ethyl-2,3-dihydro-1H-pyrrolo[3,4-c]pyridin-1-one]
> 7.00	> 7.00	> 7.00	CCN1Cc2c(ccnc2N[C@@H](C)c2cc(F)c(-c3nc(C(C)(C)C)ccc3OC)cc2F)C1=O [Compound 117, (S)-4-((1-(4-(6-(tert-butyl)-3-methoxypyridin-2-yl)-2,5-difluorophenyl)ethyl)amino)-2-ethyl-2,3-dihydro-1H-pyrrolo[3,4-c]pyridin-1-one]
> 7.00	> 7.00	> 7.00	CCN1Cc2c(ccnc2N[C@@H](C)c2cc(F)c(OC3CC(C)CC(C)(C)C3)cc2F)C1=O (stereo partly drawn) [Compound 22, 4-(((1S)-1-(2,5-difluoro-4-((3,3,5-trimethylcyclohexyl)oxy)phenyl)ethyl)amino)-2-ethyl-2,3-dihydro-1H-pyrrolo[3,4-c]pyridin-1-one]
